# Paper PMC5454392, “Selective BET bromodomain inhibition as an antifungal therapeutic strategy” (Nature Communications, 2017)
# Several values for one entry are separate records, joined by “and”; a condition that tells them apart may be missing. Equal values may be shown once. Read-outs that look alike come from different tables or passages of the source.
# Experiments:
# CaBdf1 BD1 [1] = biological target: T1, CaBdf1 BD1 (Candida albicans, UniProt Q5A4W8); assay: HTRF assay, inhibition of BD binding to H4ac4 peptide; parameters: species or system C. albicans; details: HTRF, H4ac4 peptide, BETi, maximal concentration 10 μM
# T1 construct: made in house; host or cells: E. coli BL21(DE3)
# CaBdf1 BD2 [2] = biological target: T2, CaBdf1 BD2 (Candida albicans, UniProt Q5A4W8); assay: as above; parameters: made in house; host or cells: E. coli BL21(DE3)
# CaBdf1 BD1 [3] = biological target: T1, CaBdf1 BD1; assay: Isothermal titration calorimetry (ITC); type: binding; details: ITC
# Description: (§1) Proteins used for crystallization and for ITC. […] Cells were resuspended in buffer A (50 mM Tris-HCl pH 7.5, 300 mM NaCl, 10% glycerol, 25 mM imidazole, 5 mM β-mercaptoethanol and protease inhibitors) and lysed by sonication. The cleared lysate was incubated with Ni-NTA resin (Qiagen) and washed with buffer A containing 0.5 M NaCl. Proteins were eluted with 250 mM imidazole, dialysed overnight in the presence of His-tagged TEV protease against buffer A containing no imidazole and incubated with Ni-NTA resin to remove His-tagged species. Proteins were further purified on a Superdex 75 10/300 (GE Healthcare) column in 50 mM Hepes pH 7.5, 150 mM NaCl, 0.5 mM dithiothreitol (DTT). Proteins were concentrated to >20 mg ml^−1 on a Centricon device (Millipore) and used for ITC, TSA and crystallization experiments. […] Expression and purification were performed as above, except that buffer A was replaced by buffer B (50 mM Hepes pH 7.5, 500 mM NaCl, 5% glycerol, 5 mM imidazole and protease inhibitors) and gel filtration was performed in 10 mM Hepes pH 7.5, 500 mM NaCl and 5% glycerol.
# (§2) Calorimetric experiments were performed on a NanoITC calorimeter (TA Instruments) at 25 °C while stirring at 250 r.p.m. All proteins were buffer exchanged by gel filtration into 50 mM Hepes pH 7.5, 150 mM NaCl, 0.5 mM DTT, except for SMARCA2 and SMARCA4A BDs, which were exchanged into 10 mM Hepes pH 7.5, 500 mM NaCl and 5% glycerol. […] Titrations consisted of an initial injection of 1.5 μl followed by 19 identical injections of 2.5 μl made at time intervals of 5 min. ITC data were corrected for the heat of dilution of injectant into buffer and analysed with software provided by the manufacturer using a single binding site model. The first data point was excluded from the analysis. Thermodynamic parameters determined from the ITC data are summarized in Supplementary Table 1.
# CaBdf1 BD2 [4] = biological target: T2, CaBdf1 BD2; assay: Isothermal titration calorimetry (ITC); type: binding; parameters: His tag with TEV site (N, cleaved yes); made in house; host or cells: E. coli BL21(DE3); details: ITC
# Description: as §1, §2
# human Brd4 BD1 = human Brd4 BD1 (Homo sapiens, UniProt O60885); assay: Isothermal titration calorimetry (ITC); type: binding; parameters: human Brd4 BD1 (residues 22–204); His tag with TEV site (N, cleaved yes); made in house; host or cells: E. coli BL21(DE3); details: ITC, 25 °C
# Description: as §1, §2
# [5] = test system: 32 representative human (BET and non-BET) BDs; parameters: method as in earlier work; details: cited from earlier work
# CaBdf1 BD1 Y248F = biological target: T3, CaBdf1 BD1 Y248F (Candida albicans, UniProt Q5A4W8, Y248F); assay: Histone peptide microarray binding, YF mutant;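 as to CaBdf1 BD1 Normalized (0 to 100%) YF mutant: normalized to spotted c-myc peptide positive control signal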; parameters: species or system C. albicans; details: YF mutant BD1; for CaBdf1 BD1 Raw data YF mutant: peptide array signal
# T3 construct: made in house; host or cells: E. coli BL21(DE3), inferred from the wild-type GST construct
# Description: (§3) In short, arrays were blocked and incubated with 1 μM of purified CaBdf1 BD1 or BD2. Arrays were incubated with recombinant BDs for 2 h at 4 °C in binding buffer (Tris-HCl 50 mM pH 7.4, NP-40 0.1%, NaCl 150 mM, glycerol 10%). […] Assays were performed in duplicate. Images were acquired on a Bio-Rad ChemiDoc XRS Imaging machine and data were quantified using the array analyser software provided by Active Motif.
# CaBdf1 BD2 Y425F = biological target: T4, CaBdf1 BD2 Y425F (Candida albicans, UniProt Q5A4W8, Y425F); assay: Histone peptide microarray binding, YF mutant;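 as to CaBdf1 BD2 Normalized (0 to 100%) YF mutant: normalized to spotted c-myc peptide positive control signal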; parameters: species or system C. albicans; details: YF mutant BD2; for CaBdf1 BD2 Raw data YF mutant: peptide array signal
# T4 construct: made in house; host or cells: E. coli BL21(DE3), inferred from the wild-type GST construct
# Description: as §3
# CaBdf1 BD2 [6] = biological target: T5, CaBdf1 BD2 (Candida albicans, UniProt Q5A4W8); type: binding; details: wild-type BD2; for CaBdf1 BD2 Raw data WT: peptide array signal;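 as to CaBdf1 BD2 Normalized (0 to 100%) WT: normalized to spotted c-myc peptide positive control signal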
# T5 construct: made in house; host or cells: E. coli BL21(DE3)
# T5 sequence (Q5A4W8 whole entry, looked up): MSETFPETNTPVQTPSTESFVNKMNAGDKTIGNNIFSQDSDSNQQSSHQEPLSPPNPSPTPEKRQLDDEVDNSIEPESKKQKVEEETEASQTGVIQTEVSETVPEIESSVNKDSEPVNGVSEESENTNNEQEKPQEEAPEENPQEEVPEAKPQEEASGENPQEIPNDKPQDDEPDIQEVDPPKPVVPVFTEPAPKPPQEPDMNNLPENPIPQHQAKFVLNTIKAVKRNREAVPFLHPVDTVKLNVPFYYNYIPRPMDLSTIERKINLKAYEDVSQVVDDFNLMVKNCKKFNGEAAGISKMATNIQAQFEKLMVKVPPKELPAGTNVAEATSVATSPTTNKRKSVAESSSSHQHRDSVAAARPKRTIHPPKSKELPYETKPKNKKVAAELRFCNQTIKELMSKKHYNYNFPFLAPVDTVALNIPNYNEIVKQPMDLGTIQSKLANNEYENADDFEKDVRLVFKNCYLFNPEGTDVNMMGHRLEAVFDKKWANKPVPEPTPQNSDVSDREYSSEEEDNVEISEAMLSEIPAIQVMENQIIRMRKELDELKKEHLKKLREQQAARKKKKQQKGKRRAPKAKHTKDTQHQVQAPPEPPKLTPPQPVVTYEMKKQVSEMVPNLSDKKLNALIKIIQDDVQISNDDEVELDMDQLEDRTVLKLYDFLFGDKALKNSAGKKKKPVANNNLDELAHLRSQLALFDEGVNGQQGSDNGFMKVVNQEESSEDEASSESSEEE
# Description: (§4) In short, arrays were blocked and incubated with 1 μM of purified CaBdf1 BD1 or BD2. Arrays were incubated with recombinant BDs for 2 h at 4 °C in binding buffer (Tris-HCl 50 mM pH 7.4, NP-40 0.1%, NaCl 150 mM, glycerol 10%). […] Assays were performed in duplicate.
# CaBdf1 BD1 [7] = biological target: T6, CaBdf1 BD1 (Candida albicans, UniProt Q5A4W8); type: binding; details: wild-type BD1; for CaBdf1 BD1 Raw data WT: peptide array signal;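 as to CaBdf1 BD1 Normalized (0 to 100%) WT: normalized to spotted c-myc peptide positive control signal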
# T6 construct: made in house; host or cells: E. coli BL21(DE3)
# T6 sequence (Q5A4W8 whole entry, looked up): T5 sequence (Q5A4W8 whole entry, looked up)
# Description: as §4
# T3 sequence (Q5A4W8 193-327 Y248F): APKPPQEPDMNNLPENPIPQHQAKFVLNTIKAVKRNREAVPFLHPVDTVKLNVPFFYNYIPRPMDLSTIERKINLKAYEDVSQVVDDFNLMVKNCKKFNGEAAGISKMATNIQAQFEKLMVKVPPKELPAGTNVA
# T4 sequence (Q5A4W8 361-501 Y425F): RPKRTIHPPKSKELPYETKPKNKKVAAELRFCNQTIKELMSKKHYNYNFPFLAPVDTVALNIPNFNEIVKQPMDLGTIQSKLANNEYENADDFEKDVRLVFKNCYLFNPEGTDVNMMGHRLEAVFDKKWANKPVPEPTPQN
molecule,measurement,setting,value
"CCOC(=O)Nc1cc(-c2ccc(C)c(NS(C)(=O)=O)c2)nn2c(C)nnc12 [Bromosporine, reference compound]",IC50,CaBdf1 BD1 [1]; read-out: IC50 values,> 10 µM
same,IC50,CaBdf1 BD2 [2],0.313 ± 0.002 µM
"COc1cc2c(cc1-c1c(C)noc1C)ncc1[nH]c(=O)n([C@H](C)c3ccccn3)c12 [IBET-151, reference compound]",IC50,CaBdf1 BD1 [1]; read-out: IC50 values,0.303 ± 0.12 µM
same,IC50,CaBdf1 BD2 [2],1.47 ± 0.09 µM
"Cc1sc2c(c1C)C(c1ccc(Cl)cc1)=N[C@@H](CC(=O)OC(C)(C)C)c1nnc(C)n1-2 [JQ1, reference compound]",binding to CaBdf1 BD1 (in words),CaBdf1 BD1 [3],no binding was detected
same,binding to CaBdf1 BD2 (in words),CaBdf1 BD2 [4],no binding was detected
same,N (stoichiometry),human Brd4 BD1,1.00 ± 0.03
same,TΔS,human Brd4 BD1,-2.935 kcal/mol
same,ΔH,human Brd4 BD1,-12.8 ± 0.12 kcal/mol
same,IC50,CaBdf1 BD1 [1]; IC50 values,> 10 µM
same,IC50,"CaBdf1 BD2 [2]; HTRF, H4ac4 peptide, BETi, maximal concentration 10 μM, read-out: IC50 values",~10 µM
"COc1ccccc1S(=O)(=O)Nc1ccc2c(c1)CN(C)C(=O)N2 [PFI-1, reference compound]",IC50,CaBdf1 BD1 [1]; read-out: IC50 values,> 10 µM
same,IC50,CaBdf1 BD2 [2],~10 µM
Cc1sc2c(c1C)C(c1ccc(Cl)cc1)=N[C@@H](CC(=O)NCCCCNC(=O)COc1cccc3c1C(=O)N(C1CCC(=O)NC1=O)C3=O)c1nnc(C)n1-2 (some centres unmarked) [dBET1],"BROMOscan signal, percent of control","[5]; CREBBP, EP300, FALZ and SMARCA4",25-35%
same,"BROMOscan signal, percent of control",[5]; six BET BDs,0%
same,"BROMOscan signal, percent of control",[5]; the other two BET BDs,0.25% and 1.6%
same,"BROMOscan signal, percent of control",[5]; the remaining BDs,> 35%
A Rme2s T Kme1 Q T A Rme2s K S T G G K A P R K Q,CaBdf1 BD1 Normalized (0 to 100%) YF mutant,CaBdf1 BD1 Y248F; normalized array signal,0.45%
same,CaBdf1 BD1 Raw data YF mutant,CaBdf1 BD1 Y248F; first of two raw-data columns,0.004458
same,CaBdf1 BD1 Raw data YF mutant,CaBdf1 BD1 Y248F,0.01166
same,CaBdf1 BD2 Normalized (0 to 100%) YF mutant,CaBdf1 BD2 Y425F; normalized array signal,0.147%
same,CaBdf1 BD2 Raw data YF mutant,CaBdf1 BD2 Y425F; first of two raw-data columns,0.001456
same,CaBdf1 BD2 Raw data YF mutant,CaBdf1 BD2 Y425F,0.001456
same,CaBdf1 BD2 Normalized (0 to 100%) WT,CaBdf1 BD2 [6]; normalized array signal,0.444%
same,CaBdf1 BD2 Raw data WT,CaBdf1 BD2 [6]; first of two raw-data columns,0.006863
same,CaBdf1 BD2 Raw data WT,CaBdf1 BD2 [6],0.01304
same,CaBdf1 BD1 Normalized (0 to 100%) WT,CaBdf1 BD1 [7]; normalized array signal,0.326%
same,CaBdf1 BD1 Raw data WT,CaBdf1 BD1 [7]; first of two raw-data columns,0.004276
same,CaBdf1 BD1 Raw data WT,CaBdf1 BD1 [7],0.004276
